What was measured:
[1] = system: reverse transcriptase derived from bird's myeloblastosis virus; assay: inhibition of the reverse transcriptase activities; assay type: biochemical; settings: 37° C. for 60 minutes, [3H]-TTP incorporation
Experimental: Now, the effects of the antiviral agent of the present invention for inhibition of the reverse transcriptase activities will be shown.
The test solution comprised magnesium chloride (5 mM), DTT (5 mM), sodium chloride (60 mM), [^3 H]-TTP (0.2 mM), poly(λA) (10 μg/ml), Oligo (dT) (0.04 U/ml), reverse transcriptase derived from bird's myeloblastosis virus (3 U/ml) and Tris hydrochloric acid (pH 8.0). Compound 3 was dissolved in cyclodextrin to obtain a solution having a concentration of 5 mg/ml, which was then diluted with water to a predetermined concentration for use.
Then, 50 μl of the test solution and 50 μl of the sample solution were mixed, and the mixture was incubated at 37° C. for 60 minutes. Then, 50 μl of the incubated solution was sampled and soaked into a DEA filter paper. Then, this filter paper was washed with a 5% sodium monohydrogen phosphate solution and then with water and ethanol, followed by drying. The radioactivity contained in the captured fraction was measured by means of a scintillation counter. Then, the inhibition rate (%) of the sample Compound 3 was calculated from the radioactivity of the test sample group and that of the control group.

[2] = system: helpes simplex virus (1-type, KOS strain); assay: plaque-reduction evaluation method in Verocells; assay type: cell-based; settings: drug added one hour after infection, counted three days later
Experimental: The antiviral activities were evaluated by a plaque-reduction evaluation method. Verocells were inoculated to a plastic Petri dish and then proliferated until they formed a monolayer. To each Petri dish, a predetermined number of plaque-forming units (about 100 to 500) of helpes simplex virus (1-type, KOS strain) were infected. Compound 3 was dissolved in 2% of bovine fetus serum inactivated by heating and adjusted to a predetermined concentration. One hour after the infection, the drug solution was added to the cultivation Petri dish (8 ml/Petri dish). Three days later, the cultivation Petri dish was fixed by formalin and dyed with Crystal Violet, whereupon the number of plaques was counted.

## O=C(NC(=O)c1ccccc1[N+](=O)[O-])Nc1ccc(Oc2ncc(Br)cn2)c(Cl)c1 [Compound 3]
[1]; 1.25 μg/ml
  Inhibition rate (%): 6%
[1]; 2.5 μg/ml
  Inhibition rate (%): 11%
[1]; 5 μg/ml
  Inhibition rate (%): 34%
[1]; 10 μg/ml
  Inhibition rate (%): 57%
[2]; 1 μg/ml
  Number of plaques: 264.5
  inhibition at 1 µg/mL: 45.1%
[2]; 2.5 μg/ml
  Number of plaques: 122.0
  inhibition at 2.5 µg/mL: 74.7%
[2]; 5 μg/ml
  Number of plaques: 27.5
  inhibition at 5 µg/mL: 94.3%

Reference: US5036072A, “Antiviral agent” (Ishihara Sangyo Kaisha Ltd., priority 1989, dated 1991)
